# B1: egg albumin: positive control in the ASA reaction test (protein, UniProt P01012 2-386, looked up)
# Ovalbumin: GSIGAASMEFCFDVFKELKVHHANENIFYCPIAIMSALAMVYLGAKDSTRTQINKVVRFDKLPGFGDSIEAQCGTSVNVHSSLRDILNQITKPNDVYSFSLASRLYAEERYPILPEYLQCVKELYRGGLEPINFQTAADQARELINSWVESQTNGIIRNVLQPSSVDSQTAMVLVNAIVFKGLWEKAFKDEDTQAMPFRVTEQESKPVQMMYQIGLFRVASMASEKMKILELPFASGTMSMLVLLPDEVSGLEQLESIINFEKLTEWTSSNVMEERKIKVYLPRMKMEEKYNLTSVLMAMGITDVFSSSANLSGISSAESLKISQAVHAAHAEINEAGREVVGSAEAGVDAASVSEEFRADHPFLFCIKHIATNAVLFFGRCVSP
# What was measured:
# [1] = Solubilization of a drug by micelle formation with the block copolymer; type: physicochemical; conditions: acetic acid buffer (0.1 M), pH 4.5
# [2] = drug without block copolymer, stated as known property; cited from earlier work
# Hartley male guinea pigs = conditions: guinea pig, in vivo
# Text: Hartley male guinea pigs which were 10 weeks old and weighed 338 to 490 g were used. […] The physiological saline was also sterilized by filtration with a 0.22 μm membrane filter.
# Hartley guinea pigs = conditions: guinea pig, in vivo, iv
# Description: Hartley guinea pigs which were 7 weeks old and weighed 380 to 510 g were used. […] These substances were dissolved in physiological saline to a predetermined concentration, and the same amount of FCA (Freund's complete adjuvant) or FIA (Freund's incomplete adjuvant) was added to prepare a w/o emulsion. The FCA emulsion was first administered and then the FIA emulsion was administered under the skin of the back and foot pad of each guinea pig at a dose of 2.5 ml/kg on the second and third weeks for sensitization. […] These substances were dissolved in physiological saline to a predetermined concentration. The resulting solution was administered into the veins of the front feet or rear feet of the guinea pigs at a dose of 1.0 ml/kg on the fifth week for induction and observed for 4 hours. For 1 month after that, the weights of the guinea pigs were measured and the general conditions of the guinea pigs were observed once a week.
molecule,measurement,setting,value
CC#CCC(C)[C@H](O)/C=C/[C@@H]1[C@H]2c3cccc(CCCC(=O)O)c3O[C@H]2C[C@H]1O (mixture of isomers) [beraprost sodium],dissolution in acetic acid buffer,[1],precipitate was produced
CN(Cc1cnc2nc(N)nc(N)c2n1)c1ccc(C(=O)N[C@@H](CCC(=O)O)C(=O)O)cc1 [methotrexate],solubility of the drug alone in water,[2],almost insoluble in water
Boc-(Leu-Leu-Ala-Lac)5-Leu-Phe-O-PEG4000-OH,toxicity by single dose intravenous administration,Hartley male guinea pigs; 20 mg/kg,not observed
same,general conditions,Hartley male guinea pigs; iv,Any special abnormality in the general conditions was not seen
B1,anaphylaxis reaction after induction administration,Hartley guinea pigs,anaphylaxis symptom was seen in all the guinea pigs

# Source: patent US20090258079A1, “Biocompatible Block Copolymer, Use Thereof and Manufacturing Method Thereof” (priority 2005, published 2009)
